Laboratory results reported in patent US20240383852A1, “ANTI-VIRAL COMPOUNDS” (INFEX Therapeutics Limited, priority 2021, published 2024).

Columns and labels:
SARS-CoV-2 PLpro = molecular target: T1, SARS-CoV-2 PLpro (Severe acute respiratory syndrome coronavirus 2, UniProt P0DTD1); test: biochemical; conditions: 60 nM papain-like protease, 50 μM Z-RLRGG-AMC, pH 7.5, 37° C.; read-out: SARS-CoV-2 PLpro IC50
T1 construct: containing 60 nM papain-like protease

[1] = system: human Hep G2 cells (ATCC HB-8065); test: Cytotoxicity in Hep G2 cells (CellTiter-Glo); format: cell-based; conditions: Hep G2 cells, 100 μM test article, 24-hour exposure

Q: Which IC50 (SARS-CoV-2 PLpro) does the source give for Cc1ccc(N2CCN(C)CC2)cc1C(=O)N[C@H](C)c1cccc(-c2cccc(C(N)=O)c2)c1 [Example 43, N-[(1R)-1-[3-(3-Carbamoylphenyl)phenyl]ethyl]-2-methyl-5-(4-methylpiperazin-1-yl)benzamide] here?
A: Its IC50 is < 2000 nM.

Q: What about the “% Cell Viability” value [1] of the same compound?
A: The value was 71.3%.

Q: What does the source list for Cc1ccc(N2CCN(C)CC2)cc1C(=O)N[C@H](C)c1cccc(-c2cccc(CCO)c2)c1 [Example 44, N-[(1R)-1-[3-[3-(2-Hydroxyethyl)phenyl]phenyl]ethyl]-2-methyl-5-(4-methylpiperazin-1-yl)benzamide]?
A: IC50 (SARS-CoV-2 PLpro): < 2000 nM; % Cell Viability [1]: 61.0%

Q: For Cc1ccc(N2CCN(C)CC2)cc1C(=O)N[C@H](C)c1cccc(-c2cccc(C(C)(C)O)c2)c1 [Example 45, N-[(1R)-1-[3-[3-(1-Hydroxy-1-methyl-ethyl)phenyl]phenyl]ethyl]-2-methyl-5-(4-methylpiperazin-1-yl)benzamide], which IC50 (SARS-CoV-2 PLpro) is on record?
A: The IC50 was < 2000 nM.

Q: And the “% Cell Viability” value [1]?
A: Its value is 59.5%.

Q: Which results are given for CNC(=O)c1cccc(-c2cccc([C@@H](C)NC(=O)c3cc(N4CCN(C)CC4)ccc3C)c2)c1 [Example 46, 2-Methyl-N-[(1R)-1-[3-[3-(methylcarbamoyl)phenyl]phenyl]ethyl]-5-(4-methylpiperazin-1-yl)benzamide]?
A: IC50 (SARS-CoV-2 PLpro): < 2000 nM; % Cell Viability [1]: 86.9%

Q: How did the IC50 (SARS-CoV-2 PLpro) turn out when Cc1ccc(N2CCN(C)CC2)cc1C(=O)N[C@H](C)c1cccc(-c2cccc(C(=O)N(C)C)c2)c1 [Example 47, N-[(1R)-1-[3-[3-(Dimethylcarbamoyl)phenyl]phenyl]ethyl]-2-methyl-5-(4-methylpiperazin-1-yl)benzamide] was run?
A: Its IC50 is < 2000 nM.

Q: And the “% Cell Viability” value [1]?
A: The value was 54.0%.

Q: What does the source list for Cc1ccc(N2CCN(C)CC2)cc1C(=O)N[C@H](C)c1cccc(-c2ccc(=O)n(C)c2)c1 [Example 48, 2-Methyl-N-[(1R)-1-[3-(1-methyl-6-oxo-3-pyridyl)phenyl]ethyl]-5-(4-methylpiperazin-1-yl)benzamide]?
A: IC50 (SARS-CoV-2 PLpro): < 5000 nM; % Cell Viability [1]: 63.6%

Q: For Cc1ccc(N2CCN(C)CC2)cc1C(=O)N[C@H](C)c1cccc(-c2cc[nH]n2)c1 [Example 49, 2-Methyl-5-(4-methylpiperazin-1-yl)-N-[(1R)-1-[3-(1H-pyrazol-3-yl)phenyl]ethyl]benzamide], which IC50 (SARS-CoV-2 PLpro) is on record?
A: Its IC50 is < 2000 nM.

Q: And the “% Cell Viability” value [1]?
A: Its value is 82.7%.

Q: Which IC50 (SARS-CoV-2 PLpro) does the source give for Cc1ccc(N2CCN(C)CC2)cc1C(=O)N[C@H](C)c1cccc(-c2ccsc2)c1 [Example 50, 2-Methyl-5-(4-methylpiperazin-1-yl)-N-[(1R)-1-[3-(3-thienyl)phenyl]ethyl]benzamide] here?
A: The IC50 was < 2000 nM.

Q: And the “% Cell Viability” value [1]?
A: The value was 2.3%.

Q: With Cc1ccc(N2CCN(C)CC2)cc1C(=O)N[C@H](C)c1cccc(-c2cccc(CS(C)(=O)=O)c2)c1 [Example 52, 2-Methyl-5-(4-methylpiperazin-1-yl)-N-[(1R)-1-[3-[3 (methylsulfonylmethyl)phenyl]phenyl]ethyl]benzamide] as the compound, how does the IC50 (SARS-CoV-2 PLpro) read?
A: The IC50 was < 2000 nM.

Q: What about the “% Cell Viability” value [1] of the same compound?
A: Its value is 49.0%.

Q: What does the source list for Cc1ccc(N2CCN(C)CC2)cc1C(=O)N[C@H](C)c1cccc(-c2cnn(C)c2)c1 [Example 53, 2-Methyl-5-(4-methylpiperazin-1-yl)-N-[(1R)-1-[3-(1-methylpyrazol-4-yl)phenyl]ethyl]benzamide]?
A: IC50 (SARS-CoV-2 PLpro): < 2000 nM; % Cell Viability [1]: 82.4%

Q: Which IC50 (SARS-CoV-2 PLpro) does the source give for Cc1ccc(N2CCN(C)CC2)cc1C(=O)N[C@H](C)c1ccc(-c2ccc(CO)cc2)cc1 [Example 54, N-[(1R)-1-[4-[4-(Hydroxymethyl)phenyl]phenyl]ethyl]-2-methyl-5-(4-methylpiperazin-1-yl)benzamide] here?
A: Its IC50 is < 10000 nM.

Q: And the “% Cell Viability” value [1]?
A: The value was 76.0%.

Q: With Cc1ccc(N2CCN(C)CC2)cc1C(=O)N[C@H](C)c1cccc(-c2ccc(Cl)cc2)c1 [Example 55, N-[(1R)-1-[3-(4-Chlorophenyl)phenyl]ethyl]-2-methyl-5-(4-methylpiperazin-1-yl)benzamide] as the compound, how does the IC50 (SARS-CoV-2 PLpro) read?
A: The IC50 was < 2000 nM.

Q: And the “% Cell Viability” value [1]?
A: The value was 1.0%.

Q: Which results are given for Cc1ccc(N2CCN(C)CC2)cc1C(=O)N[C@H](C)c1cccc(-c2ccc(CO)cc2)c1 [Example 56, N-[(1R)-1-[3-[4-(Hydroxymethyl)phenyl]phenyl]ethyl]-2-methyl-5-(4-methylpiperazin-1-yl)benzamide]?
A: IC50 (SARS-CoV-2 PLpro): < 2000 nM; % Cell Viability [1]: 75.1%
